Experimental data reported in patent US5981586A, “Methods for treating proliferative and inflammatory skin diseases” (priority 1998, dated 1999).
“Also recorded” adds a separate entry of the source. Read-outs that look alike come from different tables or passages of the source.

How the values were obtained:
PPARγ [1] = settings: cited from earlier work
human keratinocytes [2] = assay: Proliferation of human keratinocytes by PMS/MTS (CellTiter 96 AQueous) assay; format: cell-based
Excerpt: Inhibition of proliferating human keratinocytes in culture have been utilized as a system for screening and identifying potential therapeutic agents such as vitamin D derivatives (Kitano et at., 1991) and retinoids (West et at., 1992), for the treatment of inflammatory, proliferative skin diseases (e.g., psoriasis vulgaris, acne vulgaris, hidradenitis suppurativa).
Human keratinocytes were obtained from Clonetics (San Diego, California) and subcultured into a proprietary (Clonetics) medium optimized for cell growth and maintenance. Proliferation of keratinocytes was determined using MTS, 3-(4,5-dimethylthiazol-2-yl)-5-(3-carboxymethoxyphenyl)-2-(4-sulfophen 1)-2H-tetrazolium (PMS/MTS) as described in the CellTiter 96 AQueous Non-Radioactive Cell Proliferation Assay (Promega Inc.). Only viable cells reduce MTS to the soluble formazan, and viable cell numbers correlate with optical density (Cory et at., 1991).
Cells were seeded at 2 to 4×10^4 cells/ml of growth medium in 24 well microtiter plates. Twenty-four hours post-plating cells were treated with vehicle alone (0.1% DMSO) or various concentrations of 15-deoxy-PG J2 was added to each well (quadruplicate samples per concentration) for an additional 4 days. At each time point 100 ul of the PMS/MTS assay mix is added and absorbance at 490 nm was recorded four hours later with a microplate spectrophotometer (BioTek Instrument Co).

PPARγ [3] = settings: cited from earlier work; remark: listed apart in the source
human keratinocytes [4] = assay: Proliferation of adult human keratinocytes in culture (neutral red dye assay, 4 days); format: cell-based
Procedure: The use of proliferating human keratinocytes in culture as a test system for determining the utility of a compound for treating hyperproliferative and inflammatory disorders of the skin is well documented (Kitanot et at., Euro. J Clin. Investig. 21:53-58 (1991) and West, et at., J. Investigative Derm. 99(1):95-100 (1992).)
Cell number was assessed at time zero (before treatment) and at the end of the treatment period by the neutral red dye assay. See Kitano, et at., Euro. J. Clin. Investig. 21:53-58 (1991) and West, et at., J. Investigative Derm. 99(1):95-100 (1992). Each condition was performed in 12 replicates, on keratinocytes from three subjects and the results were combined from the three subjects. […] The coordinate plots the cell growth of the keratinocytes as the percentage of controls.

In the case of `CCOC(=O)C(C)(C)Oc1ccc(Cl)cc1` [clofibrate], the “activation of PPARγ (in words)” value (PPARγ [1]) is given as “known to activate PPARγ”.

`CCCCCC=CC=C1C(=O)C=CC1CC=CCCCC(=O)O` (stereo not shown) [15-deoxy-PG J2, 15-deoxy-A-12,14-prostaglandin J2] showed an inhibition at 2 µM (human keratinocytes [2]; Homo sapiens, Keratinocyte, 96 h, 2 uM, 4 days) of 22%, an inhibition at 4 µM (human keratinocytes [2]; Homo sapiens, Keratinocyte, 96 h, 4 uM, 4 days) of 51% and an inhibition at 8 µM (human keratinocytes [2]; Homo sapiens, Keratinocyte, 96 h, 8 uM, 4 days) of 76%. For the same molecule, the inhibition at 20 µM (human keratinocytes [2]; Homo sapiens, Keratinocyte, 96 h, 20 uM, 4 days) was 100%, the IC50 (human keratinocytes [2]; Keratinocyte, 96 h, human keratinocytes, 4 days treatment, read-out: concentration for half-maximal inhibition of growth (IC50)) was about 4 µM and the “% inhibition of proliferation of human keratinocytes” value (human keratinocytes [2]; concentration not printed in the line (first line of Table 1), 4 days) was 5%. For the same molecule, the “inhibition of proliferation of human keratinocytes (in words)” value (human keratinocytes [2]; cultured human keratinocytes, 4 days) was “inhibits the proliferation of human keratinocytes in culture; also recorded: dose-dependent inhibition of proliferation” and the “activation of PPARγ (in words)” value (PPARγ [3]) was “activate PPARγ to varying degrees”.

With `Cc1c(C)c2c(c(C)c1O)CCC(C)(COc1ccc(CC3SC(=O)NC3=O)cc1)O2` (stereo not shown) [troglitazone] the “inhibition of keratinocyte proliferation (in words)” value (human keratinocytes [4]; 0.1, 1.0 and 10 μM, 4 days, compared with vehicle 0.1% DMSO) was “dose-dependent inhibition of keratinocyte proliferation; also recorded: dose-dependent and saturable; also recorded: dose response inhibition of cell growth” and the IC50 (human keratinocytes [4]; Homo sapiens, Keratinocyte, 96 h, read-out: IC50, antiproliferative effect in human keratinocytes) was 2.1 µM.

In the case of `CC(C)(Oc1ccc(CCNC(=O)c2ccc(Cl)cc2)cc1)C(=O)O` [bezofibrate], the “activation of PPARγ (in words)” value (PPARγ [1]) is listed as “known to activate PPARγ”.

In the case of `CC(C)(Oc1ccc(C2CC2(Cl)Cl)cc1)C(=O)O` (stereo not shown) [ciprofibrate], the “activation of PPARγ (in words)” value (PPARγ [1]) is given as “known to activate PPARγ”.
